What was measured:
[1] = system: rice line RTA1 (ML0831265-01493, G2096S); assay: Field trait tolerance trial, FOP herbicides applied sequentially at 2-leaf and pre-flood; assay type: in vivo, Oryza sativa; settings: for injury rates: RTA1, 2× application rates
Excerpt: (§1) FIG. 20A-FIG. 20D showing % Injury response data and plot pictures. Material tested included ACCase-inhibitor resistant combined ACCase lines (RTA1+RTA2), the RTA1 and the RTA2 singles and the stack RTA1+HPPDi+HPPDni. Two applications (at the 2 leaf and pre-flood stage) used the same rate for both applications. […] (all images taken 4 weeks post preflood app), FIG. 20D Plat order (left to right) RTA1, RTA2, RTA1+RTA2, RTA1+HPPD i+HPPDni, P1003, R0146.
(§2) FIG. 21A-FIG. 21E, show plot pictures and % Injury response for ACCase lines RTA1, RTA2, and the stacks RTA1+RTA2 as well as the stack […], when challenged by increasing doses of the main FOP herbicides. […] FIG. 21A untreated control, FIG. 21B 4× Quizalofop, FIG. 21C 4× Fluazifop, FIG. 21D 4× Propaquizafop. 4 weeks post preflood application. Plot order (left to right) G2096S, RTA2, G2096S+RTA2, G2096S+HPPD, P1003, R0146. FIG. 21E graphical representation.
Yield response after sequential 2-leaf and pre-flood quizalofop application.
(§3) Evaluation of the novel herbicide resistance genes, subject of this application, was conducted with a range of suitable herbicide doses that cover application rates typically used for rice farming operations while also taking into consideration possible deviations from the manufacturer-recommended doses. Considering 1×, the recommended manufacturers or best practice recommended dose, the most frequently evaluated additional doses are 2× and 4× with some experiments including other values.

[2] = system: rice line RTA1+RTA2 (RL1225468, double homozygous stack); assay: as above
Excerpt: as §1, §2, §3

[3] = system: common weeds in rice (grass weeds such as barnyard grass); assay: Weed control in rice crops; assay type: in vivo; settings: in vivo
Protocol: FIGS. 5A and 5B are photographs of results of trait tolerance trials; weed control by mesotrione herbicide applied pre-planting was evaluated; the plots were planted with a hybrid of the HPPD tolerant line ML0831266-03093; just before planting, the plot on the right FIG. 5B received an application of mesotrione at 210 gmai/ha; the plot on the left FIG. 5A had no herbicide applied either pre-plant or post-emergence; pictures were taken four weeks after planting showing differences in weed appearance.
While testing the tolerant lines, the parent lines were also tested to serve as controls and as an indication of commercial potential as a red rice/wild weedy rice control strategy.
Rice is tolerant to certain ACCase inhibitor herbicides, for example cyhalofop is registered for use in rice. However other ACCase herbicides kill or severely injure rice to varying degrees. […] The applied rates of both types of herbicides giving the weed control are well within the tolerance level of the respective ACCase and HPPD tolerant lines including the combined lines carrying tolerance to both HPPD and ACCase herbicides.

[4] = system: rice line PL1214418M2-73009 and new lines that inherited the ACCase tolerance; assay: Trial of recovery of ACCase tolerance in the combined line; assay type: in vivo, Oryza sativa; settings: 0.5×, 1×, 2×, 4× of label rate
Protocol: Another trial was conducted to confirm recovery of the ACCase inhibitor resistance from the RTA1 mutation as in the line ML0831265-01493. In this trial the new line PL1214418-73009 with combined HPPD and ACCase tolerance was planted in a row along with other various lines including the original donor line ML0831265-01493 (planted in a plot), ML0831266-03093, P1003, R0146 parent line for ACCase tolerance. The lines were all tested with the ACCase herbicides fluazifop at 0.5×, 1×, 2×, and 4× multiples of the label application rate (210 gmai/ha) and quizalofop at 0.5×, 1×, 2×, and 4× multiples of the label application rate (77 gmai/ha).

[5] = system: rice lines RTA1, RTA2, RTA1+RTA2, RTA1+HPPD; assay: Field trial with increasing doses of FOP herbicides, all trait combinations; assay type: in vivo, Oryza sativa
Excerpt: 4 weeks post preflood application. […] FIG. 21E graphical representation.

[6] = system: rice line ML0831265-02283 (RTA2); assay: Field validation of tolerance to ACCase herbicide, percent injury 21 days after application; assay type: in vivo, Oryza sativa; settings: 2× and 4× of labeled rate (77 gmai/ha), four leaf stage
Excerpt: After screening a large mutant population, the line ML0831265-02283 also survived application of the ACCase herbicide quizalofop. The line was increased to obtain sufficient seed for larger trials to evaluate its tolerance to ACCase herbicides. The tolerance to ACCase herbicides in line ML0831265-02283 was validated by planting in the field plots (5 feet by 10 feet) of the line, the non-mutant parent line R0146, a second non-mutant line P1003, and the ACCase tolerant line ML0831265-01493. The ACCase herbicide quizalofop was applied at the four leaf stage at 0.5×, 1×, 2×, and 4× multiples of the labeled rate (77 gmai/ha). Twenty one days after the herbicide was applied the plots were evaluated for percent injury caused to the rice based on control plots that had no herbicide application (FIG. 6). The data confirms the tolerance of line ML0831265-02283 and it may even carry more tolerance than line ML0831265-01493 as shown by less injury at the 2× and 4× rates of quizalofop.

[7] = system: mutant plants carrying RTA2 (R0146 X ML-083126502283F2); assay: MutMap F2 population herbicide response scoring; assay type: in vivo, Oryza sativa; settings: 3 week old plants, scored 21 days after spray
Excerpt: A MutMap population was F2 plants from a cross between rice line R0146 X ML-083126502283F2. Pictures were taken 16 days post herbicide spray.
The herbicide Quizalofop was sprayed on the test fields. […] The plants were scored first at 16 days after the herbicide spray and then at 21 days after herbicide spray.
Mutant plants carrying the ‘unknown mutation RTA2’ were resistant. 3 week old plants were sprayed with Quizalofop and the herbicide response was scored 21 days after the spray. Susceptible symptoms were already observed 7 days after the Quizalofop spray, but scoring was done at 21 days. […] Few plants scored 3 (little damage on leaves or new leaf growth observed, and most likely plants will survive) or score 5 (half of the canopy is damaged and hard to predict whether the plants will survive or not), or score 7 (more damage on leaves, plants will not survive).

SMILES	rates of injury compared with the other FOP herbicides ([1]; RTA1)	injury ([2]; RTA1+RTA2, 4×, FIG. 21 trial)	control of common grass weeds, such as barnyard grass, in rice [3]	tolerance compared with donor line ML0831265-01493 [4]	usability on the crop ([5]; rates of 2× or less, any trait combination containing RTA1)	injury rates [1]	rates of injury compared with other FOP herbicides ([5]; across all trait combinations)	yield ([1]; RTA1, 1× and 2× application rates)	injury ([2]; RTA1+RTA2, 4× label rate, 4 weeks post preflood application)	injury ([2]; RTA1+RTA2, high application rates, FIG. 21 trial)	maximum dose tolerated with no phytotoxicity ([2]; double homozygous RTA1-RTA2, 2-leaf stage)	percent injury compared with line ML0831265-01493 [6]	herbicide response [7]
CC(Oc1ccc(Oc2ccc(C(F)(F)F)cn2)cc1)C(=O)O (stereo not shown) [Fluazifop]	much lower than either of the other FOP herbicides	minimal injury	good control	equivalent tolerance	viable								
CC(C)=NOCCOC(=O)[C@@H](C)Oc1ccc(Oc2cnc3cc(Cl)ccc3n2)cc1 [Propaquizafop]						~40%	highest rates of injury						
CC(Oc1ccc(Oc2cnc3cc(Cl)ccc3n2)cc1)C(=O)O (stereo not shown) [Quizalofop]			good control	equivalent tolerance		~40%		good yield retention	no injury	minimal	80 oz/acre	less injury	resistant

— patent publication US11130959B2, “Methods and compositions for combinations of mutations associated with herbicide resistance/tolerance in rice” (priority 2016, dated 2021)
